{"source": "patent US20250314640A1", "about": "“SYSTEMS AND METHODS FOR HIGH THROUGHPUT SINGLE MOLECULE TRACKING IN LIVING CELLS” (EIKON THERAPEUTICS, INC., priority 2022, published 2025)", "key": {"Estrogen Receptor (ER)": {"molecular_target": "T1, Estrogen Receptor (ER) (Homo sapiens, UniProt P03372)", "T1 construct": "expressed in transfected cells", "T1 sequence (P03372 1-595)": "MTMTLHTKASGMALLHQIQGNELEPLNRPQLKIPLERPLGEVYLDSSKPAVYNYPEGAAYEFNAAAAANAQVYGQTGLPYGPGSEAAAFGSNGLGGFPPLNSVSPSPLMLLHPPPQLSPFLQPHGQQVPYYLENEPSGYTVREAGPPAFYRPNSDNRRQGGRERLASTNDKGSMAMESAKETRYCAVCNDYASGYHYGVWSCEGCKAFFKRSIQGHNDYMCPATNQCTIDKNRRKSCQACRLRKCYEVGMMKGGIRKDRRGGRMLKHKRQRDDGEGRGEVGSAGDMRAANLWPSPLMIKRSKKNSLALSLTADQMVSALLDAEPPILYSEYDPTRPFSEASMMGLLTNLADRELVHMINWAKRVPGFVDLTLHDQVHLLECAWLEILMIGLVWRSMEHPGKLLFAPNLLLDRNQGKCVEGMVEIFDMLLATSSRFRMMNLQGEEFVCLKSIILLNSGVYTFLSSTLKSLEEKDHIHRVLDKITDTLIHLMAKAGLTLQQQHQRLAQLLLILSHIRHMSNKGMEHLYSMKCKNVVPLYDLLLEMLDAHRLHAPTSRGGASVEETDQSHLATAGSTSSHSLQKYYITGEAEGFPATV", "test": "htSMT of HaloTag-ER in U2OS cells (fbound, Dfree; bioactive screen and dose titration)", "type": "cell-based", "details": "for change in fbound of ER: follow-up experiments after the screen (FIG. 12B, 14A, 16), 100 nM in FIG. 14A"}, "[1]": {"molecular_target": "T2, glucocorticoid receptor (GR) (Homo sapiens, UniProt P04150)", "T2 construct": "Because U2OS cells express GR endogenously, HaloTag was inserted right before the stop codon of endogenous NR3C1; endogenous in cells; host or cells: U2OS, CRISPR/Cas9 knock-in at the endogenous NR3C1 locus", "T2 sequence (P04150 1-777)": "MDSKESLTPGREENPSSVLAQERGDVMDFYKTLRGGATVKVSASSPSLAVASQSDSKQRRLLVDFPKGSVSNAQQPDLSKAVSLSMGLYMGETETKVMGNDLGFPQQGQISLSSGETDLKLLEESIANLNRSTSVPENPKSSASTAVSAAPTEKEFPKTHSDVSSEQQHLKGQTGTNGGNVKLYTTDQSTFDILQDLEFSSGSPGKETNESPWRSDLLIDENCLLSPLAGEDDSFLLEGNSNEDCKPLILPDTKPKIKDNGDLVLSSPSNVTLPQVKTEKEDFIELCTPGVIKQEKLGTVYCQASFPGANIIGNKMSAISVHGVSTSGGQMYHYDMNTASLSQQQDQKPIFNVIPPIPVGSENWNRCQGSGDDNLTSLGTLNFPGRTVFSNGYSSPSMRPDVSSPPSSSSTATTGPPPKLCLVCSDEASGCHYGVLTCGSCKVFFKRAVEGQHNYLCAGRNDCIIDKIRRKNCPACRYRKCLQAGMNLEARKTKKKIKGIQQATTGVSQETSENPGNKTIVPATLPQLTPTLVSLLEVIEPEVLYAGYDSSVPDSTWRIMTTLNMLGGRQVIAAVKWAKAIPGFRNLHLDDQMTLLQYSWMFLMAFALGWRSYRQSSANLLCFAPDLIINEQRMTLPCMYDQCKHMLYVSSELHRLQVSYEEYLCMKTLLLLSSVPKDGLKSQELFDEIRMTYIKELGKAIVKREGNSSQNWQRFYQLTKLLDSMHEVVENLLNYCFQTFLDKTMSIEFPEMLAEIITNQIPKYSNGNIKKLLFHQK", "test": "htSMT of Halo-GR in U2OS cells", "type": "cell-based", "details": "1 μM antagonist, singly or co-administered with the cognate agonist; FIG. 34D", "procedure": "Thermo Fisher) at 500 μg/mL, then clonally isolated. […] Between three and six clones were subsequently tested using SMT conditions for response to a control compound, and the most homogenous clones were subsequently expanded for further testing. Unless otherwise specified, all experiments are with a single, clonally isolated cell line. Because U2OS cells express GR endogenously, HaloTag was inserted right before the stop codon of endogenous NR3C1 via homology-directed repair using CRISPR/Cas9. The HaloTag knock-in was validated by imaging using HTL-JF646 staining and through DNA sequencing.\nWhere appropriate, compounds were serially diluted in an Echo Qualified 384-Well Low Dead Volume Source Microplate (0018544, Beckman Coulter) to generate dose-titration source material."}, "androgen receptor (AR)": {"molecular_target": "androgen receptor (AR) (Homo sapiens, UniProt P10275)", "sequence (P10275 whole entry)": "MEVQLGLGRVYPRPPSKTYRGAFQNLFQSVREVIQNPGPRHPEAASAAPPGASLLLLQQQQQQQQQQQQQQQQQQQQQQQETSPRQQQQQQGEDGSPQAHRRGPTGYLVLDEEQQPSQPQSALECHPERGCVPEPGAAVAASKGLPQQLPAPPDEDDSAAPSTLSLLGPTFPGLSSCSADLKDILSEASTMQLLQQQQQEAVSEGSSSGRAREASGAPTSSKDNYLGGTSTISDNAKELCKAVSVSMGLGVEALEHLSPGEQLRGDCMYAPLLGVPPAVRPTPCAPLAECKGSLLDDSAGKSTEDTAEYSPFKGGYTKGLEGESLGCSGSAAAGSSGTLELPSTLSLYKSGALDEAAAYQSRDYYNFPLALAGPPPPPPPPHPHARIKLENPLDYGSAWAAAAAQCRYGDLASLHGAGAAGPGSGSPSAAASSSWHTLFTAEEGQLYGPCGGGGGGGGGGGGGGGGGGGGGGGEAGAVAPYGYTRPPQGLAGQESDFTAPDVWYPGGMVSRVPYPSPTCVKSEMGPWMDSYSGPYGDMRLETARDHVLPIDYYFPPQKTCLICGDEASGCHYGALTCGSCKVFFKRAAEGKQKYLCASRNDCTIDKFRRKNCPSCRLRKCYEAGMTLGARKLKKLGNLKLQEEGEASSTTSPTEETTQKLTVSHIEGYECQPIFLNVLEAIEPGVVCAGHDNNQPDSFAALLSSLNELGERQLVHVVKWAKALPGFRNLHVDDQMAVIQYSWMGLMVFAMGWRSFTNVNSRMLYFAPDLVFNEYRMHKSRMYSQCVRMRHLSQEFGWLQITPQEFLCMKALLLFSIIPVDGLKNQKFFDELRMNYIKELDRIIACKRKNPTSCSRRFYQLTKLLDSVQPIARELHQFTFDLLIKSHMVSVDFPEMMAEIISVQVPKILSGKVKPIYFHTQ"}, "ER [2]": {"molecular_target": "T3, ER (Homo sapiens, UniProt P03372)", "T3 sequence (P03372 1-595)": "T1 sequence (P03372 1-595)", "test": "kinetic SMT (kSMT) of ER after compound addition", "type": "cell-based", "set-up": "expressed in transfected cells", "details": "for t½ of increase in fbound: 100 nM; for time course of the overall effect on fbound: up to four-hour window"}, "ER [3]": {"molecular_target": "T3, ER", "test": "western blot of ER after fulvestrant treatment", "type": "cell-based", "set-up": "host or cells: Halo-ER U2OS (transfected fusion), or MCF7 / T47d (endogenous ER)", "details": "fulvestrant 24 hours prior to lysis; MCF7, T47d, U2OS Halo-ER; FIG. 20A"}, "ER [4]": {"molecular_target": "T3, ER", "test": "residence time imaging of ER (track length survival)", "type": "cell-based", "set-up": "expressed in transfected cells", "details": "100 nM HSP90 inhibition, FIG. 16E; normalized to DMSO"}}, "note": "Entries after “also recorded” stand apart in the source; their conditions may differ. Read-outs that look alike come from different tables or passages of the source."}
{"compound": "4-hydroxytamoxifen", "values": [{"measurement": "change in fbound of ER in bioactive screen", "setting": "Estrogen Receptor (ER)", "value": "significantly increased fbound"}, {"measurement": "maximal increase in ER fbound", "setting": "Estrogen Receptor (ER)", "value": "lower maximal increases in fbound"}]}
{"compound": "CN(C)c1ccc(C(c2ccc(N(C)C)cc2)c2cc([N+](=O)[O-])ccc2Cl)cc1", "note": "[AL082D06]", "values": [{"measurement": "change in GR chromatin binding (fbound)", "setting": "[1]", "value": "decrease in chromatin binding"}]}
{"compound": "CC(O)c1cc(C(=O)N[C@@H](C)Cn2ccc(-c3ccc(C#N)c(Cl)c3)n2)[nH]n1", "note": "(stereo partly drawn) [Darolutamide]", "values": [{"measurement": "change in AR chromatin binding (fbound)", "setting": "androgen receptor (AR)", "value": "decrease in chromatin binding"}]}
{"compound": "COc1cccc(-c2cc(F)ccc2[C@H]2Cc3nc(N)nc(C)c3C(=O)N2)n1", "note": "[HSP990]", "values": [{"measurement": "t½ of increase in fbound", "setting": "ER [2]", "value": 17.5, "unit": "min"}, {"measurement": "time course of the overall effect on fbound", "setting": "ER [2]", "value": "reached a plateau after an hour"}, {"measurement": "change in fbound of ER", "setting": "Estrogen Receptor (ER)", "value": "increase in fbound"}]}
{"compound": "CC(C)C[C@H](NC(=O)[C@H](Cc1ccccc1)NC(=O)c1cnccn1)B(O)O", "note": "[bortezomib]", "values": [{"measurement": "time course of the overall effect on fbound", "setting": "ER [2]", "value": "slowly increasing over the four-hour measurement window"}]}
{"compound": "CC(C)C[C@H](NC(=O)[C@H](CCc1ccccc1)NC(=O)CN1CCOCC1)C(=O)N[C@@H](Cc1ccccc1)C(=O)N[C@@H](CC(C)C)C(=O)[C@@]1(C)CO1", "note": "[carfilzomib]", "values": [{"measurement": "time course of the overall effect on fbound", "setting": "ER [2]", "value": "slowly increasing over the four-hour measurement window"}]}
{"compound": "C[C@]12CC[C@@H]3c4ccc(O)cc4C[C@@H](CCCCCCCCC[S+]([O-])CCCC(F)(F)C(F)(F)F)[C@H]3[C@@H]1CC[C@@H]2O", "note": "(stereo partly drawn) [fulvestrant]", "values": [{"measurement": "degradation of ER", "setting": "ER [3]", "value": "leads to the degradation of ER"}, {"measurement": "change in fbound of ER in bioactive screen", "setting": "Estrogen Receptor (ER); 1 μM compound versus DMSO, 5,067 molecules, two replicates", "value": "increase in fbound; also recorded: significantly increased fbound"}]}
{"compound": "CC(C)c1cc(-c2n[nH]c(=O)n2-c2ccc3c(ccn3C)c2)c(O)cc1O", "note": "[ganetespib]", "values": [{"measurement": "t½ of increase in fbound", "setting": "ER [2]", "value": 19.3, "unit": "min"}, {"measurement": "time course of the overall effect on fbound", "setting": "ER [2]", "value": "reached a plateau after an hour"}, {"measurement": "decrease in the total number long binding events", "setting": "ER [4]", "value": "four"}, {"measurement": "change in fbound of ER", "setting": "Estrogen Receptor (ER)", "value": "increase in fbound"}]}
